Patent publication US20030104507A1, “Method for detection of ATP” (priority 2001, published 2003)

Tests used:
LucPpe2m146 = experiment: Stability of reagent composition with LucPpe2m146 and detergent (RT, pH 7.0); format: biochemical, Photuris pennsylvanica
Text: (§1) The detergents used for inhibition of endogenous ATPase activity in a sample also affect activity of luciferase. […] It is ultimately the extended stability of a reagent composition, comprising an ATPase inhibitor and a luciferase enzyme, which provides a composition useful for measuring ATP, in a sample or samples, over an extended period of time.
(§2) In this experiment, the stability of a reagent composition comprising wild type LucPpy was compared to the stability of a reagent composition comprising LucPpe2m146 at about 23° C. (room temperature). The various reagent compositions had varying detergent concentrations.
(§3) Two solutions were created as listed below. One contained the luciferase, luciferin, MgSO4, and buffer (reagent composition). The other solution contained media plus ATP (media solution).
(§4) 50 μg/ml enzyme (LucPpy is Promega catalog #E170A)
(§5) Detergent (at various concentrations, see table below)
(§6) For each reagent composition, all ingredients except the luciferase enzyme were assembled; the enzyme was then added immediately before the first luminescence reading was taken. Immediately after addition of enzyme to each reagent composition and for various timepoints thereafter, 100 μl aliquots of the reagent composition were added to wells of a 96-well microtitre luminometer plate in triplicate. To these were added 100 μl Media Solution containing the ATP. Luminescence was then immediately read on a Dynex MLX microtitreplate luminometer, 0.5 second reads per well. The average relative light unit values as well as the reaction half lives are listed below in Table I and the percent of original luminescence remaining at each timepoint is listed in Table J below. The timepoint at the top of the column indicates the time at which the first rlu measurement for the samples in that column was read. […] Times listed in Table I are the same for Table J. The values for sulfobetaine and for CTAB were generated on different days, they are presented with the control values generated in the same experiment.

LucPpy = target: T1, LucPpy (Photinus pyralis, UniProt P08659); experiment: Stability of reagent composition with LucPpy and detergent (RT, pH 7.0); format: biochemical; details: for Average Relative Light Units / Percent of Luminescence Remaining: LucPpy
T1 construct: purchased Promega E170A
Text: as §1, §2, §3, §4, §5, §6

Compound: CCCCCCCCCCCC[N+](C)(C)C.[Br-] [DTAB, dodecyltrimethylammonium bromide]
- Average Relative Light Units (LucPpe2m146; LucPpe2m146, 0.02%, 1.0 min (head r67)): 28730.17 rlu
- Percent of Luminescence Remaining (LucPpe2m146; LucPpe2m146, 0.02%, 1.0 min (times of Table I r67)): 100.00%
- Average Relative Light Units (LucPpe2m146; LucPpe2m146, 0.02%, 34 min (head r67)): 28596.30 rlu
- Percent of Luminescence Remaining (LucPpe2m146; LucPpe2m146, 0.02%, 34 min (times of Table I r67)): 99.53%
- Average Relative Light Units (LucPpe2m146; LucPpe2m146, 0.02%, 65 min (head r67)): 28651.97 rlu
- Percent of Luminescence Remaining (LucPpe2m146; LucPpe2m146, 0.02%, 65 min (times of Table I r67)): 99.73%
- Average Relative Light Units (LucPpe2m146; LucPpe2m146, 0.02%, 115 min (head r67)): 26062.30 rlu
- Percent of Luminescence Remaining (LucPpe2m146; LucPpe2m146, 0.02%, 115 min (times of Table I r67)): 90.71%
- Average Relative Light Units (LucPpe2m146; LucPpe2m146, 0.02%, 175 min (head r67)): 27941.73 rlu
- Percent of Luminescence Remaining (LucPpe2m146; LucPpe2m146, 0.02%, 175 min (times of Table I r67)): 97.26%
- Average Relative Light Units (LucPpe2m146; LucPpe2m146, 0.02%, 238 min (head r67)): 27677.9 rlu
- Percent of Luminescence Remaining (LucPpe2m146; LucPpe2m146, 0.02%, 238 min (times of Table I r67)): 96.34%
- Average Relative Light Units (LucPpe2m146; LucPpe2m146, 0.02%, 286 min (head r67)): 27808.3 rlu
- Percent of Luminescence Remaining (LucPpe2m146; LucPpe2m146, 0.02%, 286 min (times of Table I r67)): 96.79%
- Average Relative Light Units (LucPpe2m146; LucPpe2m146, 0.1%, 1.0 min (head r54)): 20132.47 rlu
- Percent of Luminescence Remaining (LucPpe2m146; LucPpe2m146, 0.1%, 1.0 min (times of Table I r54)): 100.00%
- Average Relative Light Units (LucPpe2m146; LucPpe2m146, 0.1%, 34 min (head r54)): 20574.63 rlu
- Percent of Luminescence Remaining (LucPpe2m146; LucPpe2m146, 0.1%, 34 min (times of Table I r54)): 102.20%
- Average Relative Light Units (LucPpe2m146; LucPpe2m146, 0.1%, 65 min (head r54)): 20800.80 rlu
- Percent of Luminescence Remaining (LucPpe2m146; LucPpe2m146, 0.1%, 65 min (times of Table I r54)): 103.32%
- Average Relative Light Units (LucPpe2m146; LucPpe2m146, 0.1%, 115 min (head r54)): 19908.30 rlu
- Percent of Luminescence Remaining (LucPpe2m146; LucPpe2m146, 0.1%, 115 min (times of Table I r54)): 98.89%
- Average Relative Light Units (LucPpe2m146; LucPpe2m146, 0.1%, 175 min (head r54)): 20760.93 rlu
- Percent of Luminescence Remaining (LucPpe2m146; LucPpe2m146, 0.1%, 175 min (times of Table I r54)): 103.12%
- Average Relative Light Units (LucPpe2m146; LucPpe2m146, 0.1%, 238 min (head r54)): 19758.4 rlu
- Percent of Luminescence Remaining (LucPpe2m146; LucPpe2m146, 0.1%, 238 min (times of Table I r54)): 98.14%
- Average Relative Light Units (LucPpe2m146; LucPpe2m146, 0.1%, 286 min (head r54)): 19659.10 rlu
- Percent of Luminescence Remaining (LucPpe2m146; LucPpe2m146, 0.1%, 286 min (times of Table I r54)): 97.65%
- Average Relative Light Units (LucPpe2m146; LucPpe2m146, 0.5%, 15 min (head r41)): 5.496 rlu
- Percent of Luminescence Remaining (LucPpe2m146; LucPpe2m146, 0.5%, 15 min (times of Table I r41)): 100.00%
- Average Relative Light Units (LucPpe2m146; LucPpe2m146, 0.5%, 72 min (head r41)): 3.141 rlu
- Percent of Luminescence Remaining (LucPpe2m146; LucPpe2m146, 0.5%, 72 min (times of Table I r41)): 57.16%
- Average Relative Light Units (LucPpe2m146; LucPpe2m146, 0.5%, 124 min (head r41)): 2.769 rlu
- Percent of Luminescence Remaining (LucPpe2m146; LucPpe2m146, 0.5%, 124 min (times of Table I r41)): 50.39%
- Average Relative Light Units (LucPpe2m146; LucPpe2m146, 0.5%, 190 min (head r41)): 2.563 rlu
- Percent of Luminescence Remaining (LucPpe2m146; LucPpe2m146, 0.5%, 190 min (times of Table I r41)): 46.64%
- Average Relative Light Units (LucPpe2m146; LucPpe2m146, 0.5%, 251 min (head r41)): 2.766 rlu
- Percent of Luminescence Remaining (LucPpe2m146; LucPpe2m146, 0.5%, 251 min (times of Table I r41)): 50.32%
- Half-life of Luminescence Activity (LucPpy; Common firefly luciferase (P. pyralis), conc. 0.500): no activity
- Average Relative Light Units (LucPpy; 0.02%, 0.75 min (head r32)): 4513.320 rlu
- Percent of Luminescence Remaining (LucPpy; 0.02%, 0.75 min (times of Table I r32)): 100.00%
- Average Relative Light Units (LucPpy; 0.02%, 38 min (head r32)): 3761.940 rlu
- Percent of Luminescence Remaining (LucPpy; 0.02%, 38 min (times of Table I r32)): 99.53%
- Average Relative Light Units (LucPpy; 0.02%, 70 min (head r32)): 3363.410 rlu
- Percent of Luminescence Remaining (LucPpy; 0.02%, 70 min (times of Table I r32)): 74.52%
- Average Relative Light Units (LucPpy; 0.02%, 94 min (head r32)): 3229.340 rlu
- Percent of Luminescence Remaining (LucPpy; 0.02%, 94 min (times of Table I r32)): 71.55%
- Average Relative Light Units (LucPpy; 0.02%, 122 min (head r32)): 3082.030 rlu
- Percent of Luminescence Remaining (LucPpy; 0.02%, 122 min (times of Table I r32)): 68.2%
- Average Relative Light Units (LucPpy; 0.1%, 0.75 min (head r18)): 0.307 rlu
- Percent of Luminescence Remaining (LucPpy; 0.1%, 0.75 min (times of Table I r18)): 100.00%
- Average Relative Light Units (LucPpy; 0.1%, 10 min (head r18)): 0.009 rlu
- Percent of Luminescence Remaining (LucPpy; 0.1%, 10 min (times of Table I r18)): 2.93%
- Average Relative Light Units (LucPpy; 0.1%, 36 min (head r18)): 0.005 rlu
- Percent of Luminescence Remaining (LucPpy; 0.1%, 36 min (times of Table I r18)): 1.55%
- Average Relative Light Units (LucPpy; 0.5%, 0.75 min (head r5)): 0.018 rlu
- Percent of Luminescence Remaining (LucPpy; 0.5%, 0.75 min (times of Table I r5)): 100.00%
